Values of other authors as cited in article PMC9915632 (International Journal of Molecular Sciences, 2023).
Non-standard residues stand in square brackets, D forms with d. Orn = NCCC[C@H](N)C(=O)O

Columns and labels:
[1] = ref [22], cited from earlier work
SARS-CoV-2 = conditions: in vitro; ref [16]; cited from earlier work
[2] = ref [15]; cited from earlier work

Substance: For-Val-Gly-D-Leu-Ala-D-Val-Val-D-Val-Trp-D-Leu-Trp-D-Leu-Trp-D-Leu-Trp-Gly-ol [Gramicidin D, FDA-approved antimicrobial peptide drug, PubChem CID 45267103]
- hemolysis ([1]; limits use to topical application): hemolytic side effect
- tolerability ([1]; topical antibiotic): well-tolerated antibiotic

Substance: cyclo(L[dF]PV[Orn]L[dF]PV[Orn]) [Gramicidin S]
- anti-SARS-CoV-2 activity (SARS-CoV-2): anti-SARS-CoV-2 activity in vitro
- antibacterial and fungicidal activity [2]: potent antibacterial and fungicidal activity
